The record followed here is ChEMBL document CHEMBL3232817, “Structural elucidation and synthesis of vialinin C, a new inhibitor of TNF-α production” (Bioorg Med Chem, 2014).

In general, IC50 refers to the concentration at which inhibition is half-maximal. Read a low IC50 as greater potency.

The subject of the test is RBL-2H3. The experiment in a line: Inhibition of TNF-alpha production in rat RBL2H3 cells. Format: functional, cell-based.

The compound `O=C(Oc1c(OC(=O)c2ccc(O)cc2)c(-c2ccc(O)cc2)c(O)c(O)c1-c1ccc(O)cc1)c1ccc(O)cc1` came in with an IC50 of 3.5 nM. The result for `O=C(Cc1ccccc1)Oc1c(OC(=O)Cc2ccccc2)c(-c2ccc(O)cc2)c(O)c(O)c1-c1ccc(O)cc1` [VIALININ A] reads 0.25 nM; that for `O=C(Oc1c(-c2ccc(O)cc2)c(O)c2oc3cc(O)c(O)cc3c2c1OC(=O)c1ccc(O)cc1)c1ccc(O)cc1`, 890 nM. The result for `O=C(Cc1ccccc1)Oc1c(-c2ccc(O)cc2)c(O)c2oc3cc(O)c(O)cc3c2c1OC(=O)Cc1ccccc1` [VIALININ B] reads 0.05 nM.
